Experimental data as given in US20190218504A1, “METHODS OF CULTURING AURANTIOCHYTRIUM USING ACETATE AS AN ORGANIC CARBON SOURCE” (HELIAE DEVELOPMENT LLC, priority 2016, published 2019).
Like-named read-outs stand apart in the source and are kept apart here.

Experiments:
[1] = tested on: Aurantiochytrium sp. HS399; settings: cultures with a pH of 5 and above
Experimental: Aurantiochytrium was grown in an acetic acid/pH-auxostat mode in 700 ml bubble column at 27° C. in sterile conditions. […] Trace and vitamins stocks were prepared according to Ashford, et al. 2000.

[2] = tested on: Aurantiochytrium sp. HS399; settings: Table 19
Experimental: (§1) An experiment was performed to determine the effectiveness of growing Aurantiochytrium with combination of acetate and a non-acetate organic carbon sources, in this case glycerol. Aurantiochytrium sp. HS399 was grown in a 100 L open pond. The base medium contained: sodium acetate (1 g/L), glycerol (30 g/L) monosodium glutamate monohydrate (2.5 g/L) NaCl (12.5 g/L), MgSO4.7H2O (2.5 g/L), KCl (0.5 g/L), CaCl2 (0.1 g/L), KH2PO4 (0.5 g/L), vitamins (1 ml/L), and trace metal (5 ml/L). Trace and vitamins stocks were prepared according to Ashford, et al. 2000. Lipids 35, 1377-1386. The ponds were inoculated at 1 v/v using exponentially growing cultures. Aeration was maintained at 0.5 vvm using a porous hose. In one treatment the pH was controlled at a set point of pH 7 with hydrochloric acid, and no acetic acid was supplied (i.e., glycerol only). In another treatment acetic acid was supplied by a pH auxostat system at a set point of 5.5 in addition to the glycerol. The impact on microalgae growth and contamination was analyzed by measuring dry weights (filtration), residual acetate concentration in the culture medium (HPLC), and total aerobic bacteria counts (petrifilms) daily.

aerobic bacteria = settings: throughout the batch, Table 20
Experimental: as §1

[3] = tested on: Aurantiochytrium sp. HS399; settings: FIG. 1; pH set point 5.5 and 7
Experimental: An experiment was performed to determine the ability of Aurantiochytrium to grow on combination of acetate and another organic carbon source in axenic and contaminated culture conditions. […] The initial culture medium was supplemented with 30 g/L glycerol and 0.5 g/L acetate. […] Cell dry weights were measured daily.

[4] = tested on: Aurantiochytrium sp. HS399
Experimental: An experiment was performed to determine if Aurantiochytrium sp. HS399 can grow using acetate as an organic carbon source and ammonia as a nitrogen source. Aurantiochytrium was grown in an acetic acid/pH-auxostat mode in 700 ml bubble column at 27° C. in sterile conditions. The base medium contained: NaCl (12.5 g/L), MgSO4.7H2O (2.5 g/L), KCl (0.5 g/L). CaCl2) (0.1 g/L), KH2PO4 (0.125 g/L) vitamins (0.25 ml/L) and trace metal (1.25 ml/L). Trace and vitamins stocks were prepared according to Ashford, et al. 2000. Lipids 35, 1377-1386. A blend of ammonium (hydroxide and acetic acid 1:5 w/w) with slightly higher molar ratio of acetic acid (1:1.1) was prepared with the aim maintain residual acetate present until the end of the pH auxostat. The pH auxostat was set to pH 6.6. The ammonium acetate blend was added to the treatments in order to match the following concentrations: 1×: 1.07 g/L NH4, 5.68 g/L acetic acid, 3×: 3.21 g/L NH4, 17.04 g/L acetic acid, 5×: 5.35 g/L NH4, 28.40 g/L acetic acid, 7×: 7.49 g/L NH4, 39.76 g/L acetic acid.

[5] = tested on: Aurantiochytrium sp. HS399; settings: for growth with nitrogen source under an acetic acid pH auxostat system: pH 5.5 or 6.0

CC(=O)O [Acetic Acid, acetic acid]
growth using acetate as an organic carbon source [1]: able to grow | growth compared to the other culture (glycerol only, HCl) [2]: comparable growth | decrease of aerobic bacteria counts as compared to the other treatment (aerobic bacteria): ≥ 3 log | growth in axenic and contaminated cultures versus cultures not receiving acetic acid [3]: comparable growth

CC(=O)O.N [NH4AoC, ammonium acetate]
Cell Dry Weight ([4]; 1X (1.07 g/L NH4, 5.68 g/L acetic acid), time 0 d): 0.6 ± 0.0 g/L | Cell Dry Weight ([4]; 1X, time 1 d): 2.2 ± 0.0 g/L | Cell Dry Weight ([4]; 1X, time 2 d): 4.8 ± 0.0 g/L | Cell Dry Weight ([4]; 1X, time 3 d): 7.0 ± 0.1 g/L | Cell Dry Weight ([4]; 1X, time 4 d): 7.9 ± 0.1 g/L | Cell Dry Weight ([4]; 1X, time 5 d): 8.7 ± 0.2 g/L | Cell Dry Weight ([4]; 1X, time 6 d): 9.4 ± 0.1 g/L | growth on ammonium acetate blends ([4]; 1× and 3× blends, pH 6.6): able to grow | Cell Dry Weight ([4]; 3X (3.21 g/L NH4, 17.04 g/L acetic acid), time 0 d): 0.6 ± 0.0 g/L | Cell Dry Weight ([4]; 3X, time 1 d): 1.7 ± 0.1 g/L | Cell Dry Weight ([4]; 3X, time 2 d): 3.6 ± 0.3 g/L | Cell Dry Weight ([4]; 3X, time 3 d): 5.2 ± 0.1 g/L | Cell Dry Weight ([4]; 3X, time 4 d): 6.5 ± 0.3 g/L | Cell Dry Weight ([4]; 3X, time 5 d): 6.8 ± 0.3 g/L | Cell Dry Weight ([4]; 3X, time 6 d): 7.5 ± 0.1 g/L | Cell Dry Weight ([4]; 5X (5.35 g/L NH4, 28.40 g/L acetic acid), time 0 d): 0.6 ± 0.0 g/L | Cell Dry Weight ([4]; 5X, time 1 d): 0.8 ± 0.2 g/L | Cell Dry Weight ([4]; 5X, time 2 d): 0.7 ± 0.1 g/L | Cell Dry Weight ([4]; 5X, time 3 d): 0.7 ± 0.0 g/L | Cell Dry Weight ([4]; 5X, time 4 d): 0.8 ± 0.1 g/L | Cell Dry Weight ([4]; 5X, time 5 d): 0.3 ± 0.0 g/L | Cell Dry Weight ([4]; 5X, time 6 d): 0.4 ± 0.0 g/L | Cell Dry Weight ([4]; 7X (7.49 g/L NH4, 39.76 g/L acetic acid), time 0 d): 0.6 ± 0.0 g/L | Cell Dry Weight ([4]; 7X, time 1 d): 1.0 ± 0.2 g/L | Cell Dry Weight ([4]; 7X, time 2 d): 0.6 ± 0.1 g/L | Cell Dry Weight ([4]; 7X, time 3 d): 0.7 ± 0.0 g/L | Cell Dry Weight ([4]; 7X, time 4 d): 0.8 ± 0.1 g/L | Cell Dry Weight ([4]; 7X, time 5 d): 0.3 ± 0.0 g/L | Cell Dry Weight ([4]; 7X, time 6 d): 0.6 ± 0.1 g/L | Cell Dry Weight ([5]; pH 5.5, 1.1 g/L, time 0 d): 0.2 ± 0.0 g/L | Cell Dry Weight ([5]; pH 5.5, 1.1 g/L, time 1 d): 2.5 ± 0.1 g/L | Cell Dry Weight ([5]; pH 5.5, 1.1 g/L, time 2 d): 4.9 ± 0.1 g/L | Cell Dry Weight ([5]; pH 5.5, 1.1 g/L, time 3 d): 7.5 ± 0.3 g/L | Cell Dry Weight ([5]; pH 5.5, 1.1 g/L, time 4 d): 8.9 ± 0.2 g/L | Cell Dry Weight ([5]; pH 5.5, 1.1 g/L, time 5 d): 10.7 ± 0.3 g/L | Cell Dry Weight ([5]; pH 5.5, 1.1 g/L, time 6 d): 11.8 ± 0.1 g/L | growth with nitrogen source under an acetic acid pH auxostat system [5]: could grow | Cell Dry Weight ([5]; pH 6.0, 4.5 g/L, time 0 d): 0.2 ± 0.0 g/L | Cell Dry Weight ([5]; pH 6.0, 4.5 g/L, time 1 d): 2.6 ± 0.1 g/L | Cell Dry Weight ([5]; pH 6.0, 4.5 g/L, time 2 d): 5.4 ± 0.4 g/L | Cell Dry Weight ([5]; pH 6.0, 4.5 g/L, time 3 d): 7.8 ± 0.1 g/L | Cell Dry Weight ([5]; pH 6.0, 4.5 g/L, time 4 d): 9.8 ± 0.5 g/L | Cell Dry Weight ([5]; pH 6.0, 4.5 g/L, time 5 d): 11.9 ± 0.2 g/L | Cell Dry Weight ([5]; pH 6.0, 4.5 g/L, time 6 d): 13.8 ± 0.2 g/L

N[C@@H](CCC(=O)O)C(=O)[O-].[Na+] [MSG, monosodium glutamate]
Cell Dry Weight ([5]; pH 5.5, 2.5 g/L, time 1 d): 2.6 ± 0.0 g/L | Cell Dry Weight ([5]; pH 5.5, 2.5 g/L, time 2 d): 5.2 ± 0.0 g/L | Cell Dry Weight ([5]; pH 5.5, 2.5 g/L, time 3 d): 7.5 ± 0.2 g/L | Cell Dry Weight ([5]; pH 5.5, 2.5 g/L, time 4 d): 8.8 ± 0.4 g/L | Cell Dry Weight ([5]; pH 5.5, 2.5 g/L, time 5 d): 10.4 ± 0.4 g/L | Cell Dry Weight ([5]; pH 5.5, 2.5 g/L, time 6 d): 11.4 ± 0.3 g/L | growth with nitrogen source under an acetic acid pH auxostat system [5]: could grow | Cell Dry Weight ([5]; pH 6.0, 10 g/L, time 1 d): 3.6 ± 0.3 g/L | Cell Dry Weight ([5]; pH 6.0, 10 g/L, time 2 d): 6.1 ± 0.1 g/L | Cell Dry Weight ([5]; pH 6.0, 10 g/L, time 4 d): 7.9 ± 2.0 g/L | Cell Dry Weight ([5]; pH 6.0, 10 g/L, time 6 d): 11.9 ± 2.6 g/L
